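Each compound was tested at five concentrations against cells in 96-well plates for 48 hours. GI50 marks 50% less growth.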 Calls of active or inactive are those of the source. Rule as the data show it: active = GI50 up to about 1.1 µM and inactive = higher.
Key:
Assay in all cases: growth of human tumour cells (NCI), 48 h
SK-MEL-28 = tested on: SK-MEL-28
M14 = tested on: M14
HT-29 = tested on: HT-29
SNB-75 = tested on: SNB-75
OVCAR-5 = tested on: OVCAR-5
RXF 393 = tested on: RXF 393
NCI-H23 = tested on: NCI-H23
KM12 = tested on: KM12
SF-539 = tested on: SF-539
ACHN = tested on: ACHN
HL-60 = tested on: HL-60
HCT-116 = tested on: HCT-116
UACC-257 = tested on: UACC-257
DMS-114 = tested on: DMS-114
M19-MEL = tested on: M19-MEL
A498 = tested on: A498
SK-MEL-2 = tested on: SK-MEL-2
U-251 = tested on: U-251
RPMI-8226 = tested on: RPMI-8226
IGROV-1 = tested on: IGROV-1
LXFL 529 = tested on: LXFL 529
CCRF-CEM = tested on: CCRF-CEM
Malme-3M = tested on: Malme-3M
OVCAR-3 = tested on: OVCAR-3
UO-31 = tested on: UO-31
COLO 205 = tested on: COLO 205
UACC-62 = tested on: UACC-62
OVCAR-4 = tested on: OVCAR-4
HOP-92 = tested on: HOP-92
HOP-62 = tested on: HOP-62
NCI-H460 = tested on: NCI-H460
SF-268 = tested on: SF-268
SNB-78 = tested on: SNB-78
SK-OV-3 = tested on: SK-OV-3
SF-295 = tested on: SF-295
SNB-19 = tested on: SNB-19
KM-20L2 = tested on: KM-20L2
MDA-MB-435 = tested on: MDA-MB-435
MOLT-4 = tested on: MOLT-4
SR = tested on: SR
Hs-578T = tested on: Hs-578T
HCT-15 = tested on: HCT-15
LOX IMVI = tested on: LOX IMVI
MDA-MB-231 = tested on: MDA-MB-231
T47D = tested on: T47D
SW-620 = tested on: SW-620
NCI-H522 = tested on: NCI-H522
SK-MEL-5 = tested on: SK-MEL-5
PC-3 = tested on: PC-3
BT-549 = tested on: BT-549
K562 = tested on: K562
TK-10 = tested on: TK-10
CAKI-1 = tested on: CAKI-1
MCF7 = tested on: MCF7
MDA-N = tested on: MDA-N
NCI-H226 = tested on: NCI-H226
OVCAR-8 = tested on: OVCAR-8
HCC 2998 = tested on: HCC 2998
A549 = tested on: A549
DU-145 = tested on: DU-145
786-0 = tested on: 786-0
EKVX = tested on: EKVX
NCI/ADR-RES = tested on: NCI/ADR-RES
SN12C = tested on: SN12C

Compound: CCCCOP(=O)(OCCCC)/C(C#N)=C/c1ccco1
- GI50 (SK-MEL-28): > 100 µM (inactive)
- GI50 (M14): > 100 µM (inactive)
- GI50 (HT-29): > 100 µM (inactive)
- GI50 (SNB-75): 27.2 µM (inactive)
- GI50 (OVCAR-5): > 100 µM (inactive)
- GI50 (RXF 393): 82.8 µM (inactive)
- GI50 (NCI-H23): > 100 µM (inactive)
- GI50 (KM12): 52.6 µM (inactive)
- GI50 (SF-539): > 100 µM (inactive)
- GI50 (ACHN): 95.7 µM (inactive)
- GI50 (HL-60): 22.8 µM (inactive)
- GI50 (HCT-116): > 100 µM (inactive)
- GI50 (UACC-257): 40.1 µM (inactive)
- GI50 (DMS-114): 64.9 µM (inactive)
- GI50 (M19-MEL): > 100 µM (inactive)
- GI50 (A498): 77.8 µM (inactive)
- GI50 (SK-MEL-2): > 100 µM (inactive)
- GI50 (U-251): > 100 µM (inactive)
- GI50 (RPMI-8226): 45.2 µM (inactive)
- GI50 (IGROV-1): > 100 µM (inactive)
- GI50 (LXFL 529): > 100 µM (inactive)
- GI50 (CCRF-CEM): 12.4 µM (inactive)
- GI50 (Malme-3M): 94.2 µM (inactive)
- GI50 (OVCAR-3): 34.7 µM (inactive)
- GI50 (UO-31): 25.8 µM (inactive)
- GI50 (COLO 205): > 100 µM (inactive)
- GI50 (UACC-62): > 100 µM (inactive)
- GI50 (OVCAR-4): 91.6 µM (inactive)
- GI50 (HOP-92): 45.3 µM (inactive)
- GI50 (HOP-62): > 100 µM (inactive)
- GI50 (NCI-H460): > 100 µM (inactive)
- GI50 (SF-268): 45.2 µM (inactive)
- GI50 (SNB-78): 43.9 µM (inactive)
- GI50 (SK-OV-3): > 100 µM (inactive)
- GI50 (SF-295): 51.3 µM (inactive)
- GI50 (SNB-19): 94.6 µM (inactive)
- GI50 (KM-20L2): > 100 µM (inactive)

Compound: CS(=O)(=O)OCCCCOS(=O)(=O)CF
- GI50 (SK-MEL-28): > 100 µM (inactive)
- GI50 (MDA-MB-435): > 100 µM (inactive)
- GI50 (MOLT-4): 32.9 µM (inactive)
- GI50 (M14): > 100 µM (inactive)
- GI50 (HT-29): > 100 µM (inactive)
- GI50 (SNB-75): > 100 µM (inactive)
- GI50 (OVCAR-5): > 100 µM (inactive)
- GI50 (RXF 393): > 100 µM (inactive)
- GI50 (NCI-H23): > 100 µM (inactive)
- GI50 (KM12): > 100 µM (inactive)
- GI50 (SF-539): > 100 µM (inactive)
- GI50 (ACHN): 52.6 µM (inactive)
- GI50 (SR): > 73.3 µM (inactive)
- GI50 (Hs-578T): > 100 µM (inactive)
- GI50 (HL-60): 33.5 µM (inactive)
- GI50 (HCT-15): > 100 µM
- GI50 (HCT-116): > 100 µM (inactive)
- GI50 (UACC-257): > 100 µM (inactive)
- GI50 (LOX IMVI): > 100 µM (inactive)
- GI50 (A498): > 100 µM (inactive)
- GI50 (MDA-MB-231): > 100 µM (inactive)
- GI50 (T47D): > 100 µM (inactive)
- GI50 (SK-MEL-2): > 100 µM (inactive)
- GI50 (U-251): > 100 µM (inactive)
- GI50 (RPMI-8226): > 100 µM (inactive)
- GI50 (SW-620): > 100 µM (inactive)
- GI50 (NCI-H522): > 100 µM (inactive)
- GI50 (SK-MEL-5): > 100 µM (inactive)
- GI50 (PC-3): > 100 µM (inactive)
- GI50 (BT-549): > 100 µM (inactive)
- GI50 (IGROV-1): > 91.4 µM (inactive)
- GI50 (K562): > 100 µM (inactive)
- GI50 (TK-10): > 100 µM (inactive)
- GI50 (CCRF-CEM): 52.4 µM (inactive)
- GI50 (CAKI-1): > 72.1 µM (inactive)
- GI50 (MCF7): > 95.1 µM (inactive)
- GI50 (MDA-N): > 100 µM (inactive)
- GI50 (NCI-H226): > 100 µM (inactive)
- GI50 (OVCAR-8): > 100 µM (inactive)
- GI50 (HCC 2998): > 100 µM (inactive)
- GI50 (Malme-3M): > 46.5 µM (inactive)
- GI50 (OVCAR-3): > 100 µM (inactive)
- GI50 (UO-31): > 100 µM (inactive)
- GI50 (COLO 205): > 100 µM (inactive)
- GI50 (A549): > 100 µM (inactive)
- GI50 (UACC-62): > 100 µM (inactive)
- GI50 (DU-145): > 100 µM (inactive)
- GI50 (OVCAR-4): > 100 µM (inactive)
- GI50 (HOP-92): > 49.5 µM (inactive)
- GI50 (HOP-62): > 100 µM (inactive)
- GI50 (NCI-H460): 56 µM (inactive)
- GI50 (SF-268): > 100 µM (inactive)
- GI50 (SK-OV-3): > 100 µM (inactive)
- GI50 (786-0): > 100 µM (inactive)
- GI50 (EKVX): > 100 µM (inactive)
- GI50 (SF-295): > 100 µM (inactive)
- GI50 (NCI/ADR-RES): > 100 µM (inactive)
- GI50 (SNB-19): > 100 µM (inactive)
- GI50 (SN12C): > 100 µM (inactive)

Compound: O=C1C=C[C@@]23C[C@@H](NC4=C2C2=NCCc5c[nH]c(c52)C4=O)SC3=C1 [1-DEBROMODISCORHABDIN B]
- GI50 (MDA-MB-435): 1.63 µM (inactive)
- GI50 (MOLT-4): 1.99 µM (inactive)
- GI50 (HT-29): 2.22 µM (inactive)
- GI50 (KM12): 6.43 µM (inactive)
- GI50 (HL-60): 1.67 µM (inactive)
- GI50 (HCT-116): 1.75 µM (inactive)
- GI50 (NCI-H522): 1.69 µM (inactive)
- GI50 (TK-10): 14.6 µM (inactive)
- GI50 (CCRF-CEM): 2.86 µM (inactive)
- GI50 (CAKI-1): 17.7 µM (inactive)
- GI50 (MDA-N): 1.73 µM (inactive)
- GI50 (NCI-H226): 14.6 µM (inactive)
- GI50 (Malme-3M): 1.25 µM (inactive)
- GI50 (UO-31): 9.35 µM (inactive)
- GI50 (COLO 205): 1.55 µM (inactive)
- GI50 (SK-OV-3): 18.7 µM (inactive)
- GI50 (SNB-19): 16.3 µM (inactive)
- GI50 (KM-20L2): 3.01 µM (inactive)
